Source: paper PMC5218480 (PLoS ONE, 2017)

Tested on: MV-4-11 cells
Assay: Gene expression microarray analysis (Affymetrix PrimeView) and GSEA
Type: cell-based, human
Set-up: RFU PODN (11730768_x_at) / Fold change /veh PODN (11730768_x_at) / RFU LINC00158 (11744669_a_at) / Fold change /veh LINC00158 (11744669_a_at) / RFU DUSP10 (11751237_a_at) / Fold change /veh DUSP10 (11751237_a_at) / RFU ID3 (11757404_x_at) / Fold change /veh ID3 (11757404_x_at) / RFU PLEKHG5 (11737974_s_at) / Fold change /veh PLEKHG5 (11737974_s_at) / RFU LRRC4B (11730491_at) / Fold change /veh LRRC4B (11730491_at) / RFU GIMAP4 (11747438_a_at) / Fold change /veh GIMAP4 (11747438_a_at) / RFU KRT8 (11758183_x_at) / Fold change /veh KRT8 (11758183_x_at) / RFU CNN1 (11734310_a_at) / Fold change /veh CNN1 (11734310_a_at) / RFU VPS37D (11726825_at) / Fold change /veh VPS37D (11726825_at) / RFU C10orf10 (11716522_x_at) / Fold change /veh C10orf10 (11716522_x_at) / RFU KIR2DL2 /// KIR2DL4 /// KIR2DL5A /// KIR2DL5B /// KIR2DS1 /// KIR2DS2 /// KIR2DS3 /// KIR2DS4 /// KIR3DL3 /// KIR3DL3 /// KIR3DS1 (11738374_at) / Fold change /veh KIR2DL2 /// KIR2DL4 /// KIR2DL5A /// KIR2DL5B /// KIR2DS1 /// KIR2DS2 /// KIR2DS3 /// KIR2DS4 /// KIR3DL3 /// KIR3DL3 /// KIR3DS1 (11738374_at) / RFU C1QL1 (11718748_at) / Fold change /veh C1QL1 (11718748_at) / RFU TMPRSS4 (11747572_a_at) / Fold change /veh TMPRSS4 (11747572_a_at) / RFU HAMP (11756126_x_at) / Fold change /veh HAMP (11756126_x_at) / RFU RNFT2 (11725882_a_at) / Fold change /veh RNFT2 (11725882_a_at) / RFU NR4A2 (11747474_a_at) / Fold change /veh NR4A2 (11747474_a_at) / RFU ABCC12 (11746883_a_at) / Fold change /veh ABCC12 (11746883_a_at) / RFU TMEM136 (11760407_x_at) / Fold change /veh TMEM136 (11760407_x_at) / RFU CLDN22 /// WWC2 (11732394_at) / Fold change /veh CLDN22 /// WWC2 (11732394_at) / RFU HLA-DPB1 (11760878_x_at) / Fold change /veh HLA-DPB1 (11760878_x_at) / RFU SPINT1 (11716480_a_at) / Fold change /veh SPINT1 (11716480_a_at) / RFU GAP43 (11754022_s_at) / Fold change /veh GAP43 (11754022_s_at) / RFU A4GNT (11735810_at) / Fold change /veh A4GNT (11735810_at) / RFU PRB3 (11715151_x_at) / Fold change /veh PRB3 (11715151_x_at) / RFU TUBB4B (11761932_at) / Fold change /veh TUBB4B (11761932_at) / RFU CAPN14 (11732068_a_at) / Fold change /veh CAPN14 (11732068_a_at) / RFU TMCC2 (11721928_a_at) / Fold change /veh TMCC2 (11721928_a_at) / RFU IRGQ (11745062_a_at) / Fold change /veh IRGQ (11745062_a_at) / RFU FAM174B (11720279_a_at) / Fold change /veh FAM174B (11720279_a_at) / RFU TMPRSS4 (11748680_a_at) / Fold change /veh TMPRSS4 (11748680_a_at) / RFU FAM212B (11763350_a_at) / Fold change /veh FAM212B (11763350_a_at) / RFU PLEKHG5 (11743358_a_at) / Fold change /veh PLEKHG5 (11743358_a_at) / RFU ZSCAN30 (11745921_a_at) / Fold change /veh ZSCAN30 (11745921_a_at) / RFU CMKLR1 (11741424_a_at) / Fold change /veh CMKLR1 (11741424_a_at) / RFU LOC101060620 /// MAPK8IP1 (11723275_at) / Fold change /veh LOC101060620 /// MAPK8IP1 (11723275_at) / RFU SPTSSB (11747773_x_at) / Fold change /veh SPTSSB (11747773_x_at) / RFU PRSS12 (11739890_at) / Fold change /veh PRSS12 (11739890_at) / RFU BIN1 (11741810_x_at) / Fold change /veh BIN1 (11741810_x_at) / RFU WNT11 (11732464_a_at) / Fold change /veh WNT11 (11732464_a_at) / RFU C10orf10 (11716521_a_at) / Fold change /veh C10orf10 (11716521_a_at) / RFU C5orf56 (11738089_at) / Fold change /veh C5orf56 (11738089_at) / RFU CYB561 (11721691_x_at) / Fold change /veh CYB561 (11721691_x_at) / RFU ANKRD19P (11752326_a_at) / Fold change /veh ANKRD19P (11752326_a_at) / RFU OR2T12 /// OR2T33 /// OR2T8 (11738714_s_at) / Fold change /veh OR2T12 /// OR2T33 /// OR2T8 (11738714_s_at) / RFU VCAN (11748164_a_at) / Fold change /veh VCAN (11748164_a_at) / RFU JSRP1 (11732532_at) / Fold change /veh JSRP1 (11732532_at) / RFU KRTAP10-11 (11738290_x_at) / Fold change /veh KRTAP10-11 (11738290_x_at) / RFU MYO3A (11730013_a_at) / Fold change /veh MYO3A (11730013_a_at) / RFU EBF3 (11725865_a_at) / Fold change /veh EBF3 (11725865_a_at) / RFU CAMK2N1 (11719241_x_at) / Fold change /veh CAMK2N1 (11719241_x_at) / RFU C5orf56 (11738088_a_at) / Fold change /veh C5orf56 (11738088_a_at) / RFU OLFML3 (11715873_a_at) / Fold change /veh OLFML3 (11715873_a_at) / RFU LOC100653217 /// NTM (11731650_a_at) / Fold change /veh LOC100653217 /// NTM (11731650_a_at) / RFU MAPK11 (11762145_a_at) / Fold change /veh MAPK11 (11762145_a_at) / RFU FIZ1 (11724087_x_at) / Fold change /veh FIZ1 (11724087_x_at) / RFU OASL (11726364_x_at) / Fold change /veh OASL (11726364_x_at) / RFU SOX15 (11748057_x_at) / Fold change /veh SOX15 (11748057_x_at) / RFU CD79A (11719716_a_at) / Fold change /veh CD79A (11719716_a_at) / RFU HIST1H1D (11736915_at) / Fold change /veh HIST1H1D (11736915_at) / RFU CASKIN2 (11723855_a_at) / Fold change /veh CASKIN2 (11723855_a_at) / RFU LOC730098 (11760151_x_at) / Fold change /veh LOC730098 (11760151_x_at) / RFU OR4N2 (11742367_at) / Fold change /veh OR4N2 (11742367_at) / RFU PRRT2 (11749266_a_at) / Fold change /veh PRRT2 (11749266_a_at) / RFU SNX32 (11753110_a_at) / Fold change /veh SNX32 (11753110_a_at) / RFU CDHR5 (11726645_a_at) / Fold change /veh CDHR5 (11726645_a_at) / RFU RCAN1 (11760418_a_at) / Fold change /veh RCAN1 (11760418_a_at) / RFU FAM167A (11723789_a_at) / Fold change /veh FAM167A (11723789_a_at) / RFU FAM26E (11764081_at) / Fold change /veh FAM26E (11764081_at) / RFU ISYNA1 (11749810_s_at) / Fold change /veh ISYNA1 (11749810_s_at) / RFU ACY1 (11761880_at) / Fold change /veh ACY1 (11761880_at) / RFU 11764098_at / Fold change /veh 11764098_at / RFU SAMD14 (11745864_x_at) / Fold change /veh SAMD14 (11745864_x_at) / RFU NPB (11741838_a_at) / Fold change /veh NPB (11741838_a_at) / RFU TMPRSS6 (11731388_a_at) / Fold change /veh TMPRSS6 (11731388_a_at) / RFU KRTAP10-2 (11738614_at) / Fold change /veh KRTAP10-2 (11738614_at) / RFU ARHGAP8 /// PRR5-ARHGAP8 (11727945_x_at) / Fold change /veh ARHGAP8 /// PRR5-ARHGAP8 (11727945_x_at) / RFU KRTAP5-7 /// NADSYN1 (11734609_at) / Fold change /veh KRTAP5-7 /// NADSYN1 (11734609_at) / RFU RASL12 (11751679_a_at) / Fold change /veh RASL12 (11751679_a_at) / RFU CDKN2B (11736163_a_at) / Fold change /veh CDKN2B (11736163_a_at) / RFU PRF1 (11729649_at) / Fold change /veh PRF1 (11729649_at) / RFU, ZNF638 /// ZNF638-IT1 / Fold change vs veh, ZNF638 /// ZNF638-IT1 / RFU, PANK3 / Fold change vs veh, PANK3 / RFU, SH3YL1 / Fold change vs veh, SH3YL1 / RFU, ZEB2 / Fold change vs veh, ZEB2 / RFU, NRIP1 / Fold change vs veh, NRIP1 / RFU, PTTG1IP / Fold change vs veh, PTTG1IP / RFU, CAPN2 / Fold change vs veh, CAPN2 / RFU, MED14 / Fold change vs veh, MED14 / RFU, SNORA58 / Fold change vs veh, SNORA58 / RFU, C1orf63 / Fold change vs veh, C1orf63 / RFU, LRRFIP1 / Fold change vs veh, LRRFIP1 / RFU, NDUFAF7 / Fold change vs veh, NDUFAF7 / RFU, SLC12A2 / Fold change vs veh, SLC12A2 / RFU, IBTK / Fold change vs veh, IBTK / RFU, ESF1 / Fold change vs veh, ESF1 / Fold change vs veh, TMEM50B / RFU, TAOK1 / Fold change vs veh, TAOK1 / RFU, ACBD3 / Fold change vs veh, ACBD3 / RFU, TMA16 / Fold change vs veh, TMA16 / RFU, RWDD3 / Fold change vs veh, RWDD3 / RFU, BCAT1 / Fold change vs veh, BCAT1 / RFU, EDEM3 / Fold change vs veh, EDEM3 / RFU, TMEM33 / Fold change vs veh, TMEM33 / RFU, WDR75 / Fold change vs veh, WDR75 / RFU, AHCTF1 / Fold change vs veh, AHCTF1 / RFU, TFRC / Fold change vs veh, TFRC / RFU, ZDHHC17 / Fold change vs veh, ZDHHC17 / RFU, NOM1 / Fold change vs veh, NOM1 / RFU, ARL8B / Fold change vs veh, ARL8B / RFU, ZBTB11 / Fold change vs veh, ZBTB11 / RFU, TAMM41 / Fold change vs veh, TAMM41 / RFU, KIAA1704 /// LOC100996395 / Fold change vs veh, KIAA1704 /// LOC100996395 / RFU, ING1 / Fold change vs veh, ING1 / RFU, TRMT61B / Fold change vs veh, TRMT61B / RFU, FUBP3 / Fold change vs veh, FUBP3 / RFU, TP53 / Fold change vs veh, TP53 / RFU, TNKS2 / Fold change vs veh, TNKS2 / RFU, ZFP14 / Fold change vs veh, ZFP14 / RFU, ACTR2 / Fold change vs veh, ACTR2 / RFU, PPP3R1 / Fold change vs veh, PPP3R1 / RFU, PIK3R1 / Fold change vs veh, PIK3R1 / RFU, HNRNPA1 / Fold change vs veh, HNRNPA1 / RFU, RNF170 / Fold change vs veh, RNF170 / RFU, ZNF28 / Fold change vs veh, ZNF28 / RFU, RNGTT / Fold change vs veh, RNGTT / RFU, OGT / Fold change vs veh, OGT / RFU, BRD1 / Fold change vs veh, BRD1 / RFU, MARS / Fold change vs veh, MARS / RFU, ZNF655 / Fold change vs veh, ZNF655 / RFU, FAHD1 / Fold change vs veh, FAHD1 / RFU, BDP1 / Fold change vs veh, BDP1 / RFU, LRRCC1 / Fold change vs veh, LRRCC1 / RFU, ARID1A / Fold change vs veh, ARID1A / RFU, ZNF146 / Fold change vs veh, ZNF146 / RFU, ZNF330 / Fold change vs veh, ZNF330 / RFU, GPN3 / Fold change vs veh, GPN3 / RFU, C9orf123 / Fold change vs veh, C9orf123 / RFU, N4BP2L2 / Fold change vs veh, N4BP2L2 / RFU, ARFIP1 / Fold change vs veh, ARFIP1 / RFU, FAM179B / Fold change vs veh, FAM179B / RFU, BCL10 / Fold change vs veh, BCL10 / RFU, UHRF1BP1L / Fold change vs veh, UHRF1BP1L / RFU, BET1 / Fold change vs veh, BET1 / RFU, CNOT2 / Fold change vs veh, CNOT2 / RFU, ZNF268 / Fold change vs veh, ZNF268 / Fold change vs veh, ZNF507 / RFU, DGCR2 / Fold change vs veh, DGCR2 / RFU, WDSUB1 / Fold change vs veh, WDSUB1 / Fold change vs veh, HSP90B1 /// MIR3652 / RFU, ADSS / Fold change vs veh, ADSS / RFU, GK / Fold change vs veh, GK / RFU, ZNF148 / Fold change vs veh, ZNF148 / RFU, TAF9 / Fold change vs veh, TAF9 / RFU, SLC1A5 / Fold change vs veh, SLC1A5 / RFU, SLMO2 / Fold change vs veh, SLMO2 / RFU, ABCC4 / Fold change vs veh, ABCC4 / RFU, LOC101060439 /// RAP1B / Fold change vs veh, LOC101060439 /// RAP1B / RFU, RFX7 / Fold change vs veh, RFX7 / RFU, GTPBP10 / Fold change vs veh, GTPBP10 / RFU, CNEP1R1 / Fold change vs veh, CNEP1R1 / RFU, BIVM-ERCC5 /// ERCC5 / Fold change vs veh, BIVM-ERCC5 /// ERCC5 / RFU, ILF3 / Fold change vs veh, ILF3 / RFU 11762660_at / Fold change /veh 11762660_at / RFU VCAN (11757783_s_at) / Fold change /veh VCAN (11757783_s_at) / RFU DDX43 (11728927_at) / Fold change /veh DDX43 (11728927_at) / RFU KRT8 (11758188_x_at) / Fold change /veh KRT8 (11758188_x_at) / RFU NKD1 (11759106_at) / Fold change /veh NKD1 (11759106_at) / RFU SRD5A1 (11742802_a_at) / Fold change /veh SRD5A1 (11742802_a_at) / RFU TPSAB1 /// TPSB2 (11721975_s_at) / Fold change /veh TPSAB1 /// TPSB2 (11721975_s_at) / RFU GSTM3 (11746129_a_at) / Fold change /veh GSTM3 (11746129_a_at) / RFU IL23R (11737362_x_at) / Fold change /veh IL23R (11737362_x_at) / RFU TMEM51 (11727254_a_at) / Fold change /veh TMEM51 (11727254_a_at) / RFU PIWIL2 (11732686_x_at) / Fold change /veh PIWIL2 (11732686_x_at) / RFU ORM1 (11744905_x_at) / Fold change /veh ORM1 (11744905_x_at) / RFU CCDC152 (11743942_at) / Fold change /veh CCDC152 (11743942_at) / RFU ECM1 (11717891_a_at) / Fold change /veh ECM1 (11717891_a_at) / RFU IL23R (11748794_a_at) / Fold change /veh IL23R (11748794_a_at) / RFU TNFAIP8L3 (11732012_x_at) / Fold change /veh TNFAIP8L3 (11732012_x_at) / RFU MBOAT4 (11741988_at) / Fold change /veh MBOAT4 (11741988_at) / RFU 11764193_at / Fold change /veh 11764193_at / RFU TMEM53 (11763286_at) / Fold change /veh TMEM53 (11763286_at) / RFU MAGEB2 (11727129_at) / Fold change /veh MAGEB2 (11727129_at) / RFU TMEM200A (11744735_a_at) / Fold change /veh TMEM200A (11744735_a_at) / RFU CCDC152 (11751479_a_at) / Fold change /veh CCDC152 (11751479_a_at) / RFU FAM211A (11726209_a_at) / Fold change /veh FAM211A (11726209_a_at) / RFU RGS16 (11746705_a_at) / Fold change /veh RGS16 (11746705_a_at) / RFU VCAN (11755009_s_at) / Fold change /veh VCAN (11755009_s_at) / RFU RHOB (11743442_s_at) / Fold change /veh RHOB (11743442_s_at) / RFU RGS16 (11720943_a_at) / Fold change /veh RGS16 (11720943_a_at) / RFU RGS16 (11720944_at) / Fold change /veh RGS16 (11720944_at) / RFU, VPS4B / Fold change vs veh, VPS4B / RFU, CREB1 / Fold change vs veh, CREB1 / RFU, DNAJC13 / Fold change vs veh, DNAJC13 / RFU, GNAQ / Fold change vs veh, GNAQ / RFU, CDK5R1 / Fold change vs veh, CDK5R1 / RFU, ZRANB3 / Fold change vs veh, ZRANB3 / RFU, CUL4A / Fold change vs veh, CUL4A / RFU, CCNY / Fold change vs veh, CCNY / RFU, UFL1 / Fold change vs veh, UFL1 / RFU, COG3 / Fold change vs veh, COG3 / RFU, DIAPH2 / Fold change vs veh, DIAPH2 / RFU, SKA2 / Fold change vs veh, SKA2 / RFU, AFF3 / Fold change vs veh, AFF3 / RFU, LMF1 / Fold change vs veh, LMF1 / RFU, IPO11 / Fold change vs veh, IPO11 / RFU, DFFB / Fold change vs veh, DFFB / RFU, FOXP1 / Fold change vs veh, FOXP1 / RFU, CARD8 / Fold change vs veh, CARD8 / RFU, STRN3 / Fold change vs veh, STRN3 / RFU, ADK / Fold change vs veh, ADK / RFU, RASSF2 / Fold change vs veh, RASSF2 / RFU, WIPF1 / Fold change vs veh, WIPF1 / RFU, LARP1B / Fold change vs veh, LARP1B / RFU, RASA1 / Fold change vs veh, RASA1 / RFU, RB1 / Fold change vs veh, RB1 / RFU, PPFIA1 / Fold change vs veh, PPFIA1 / RFU, MAT2A / Fold change vs veh, MAT2A / RFU, CCT5 / Fold change vs veh, CCT5 / RFU, WDR92 / Fold change vs veh, WDR92 / RFU, CUX1 / Fold change vs veh, CUX1 / RFU, TTC7A / Fold change vs veh, TTC7A / RFU, TMEM135 / Fold change vs veh, TMEM135 / RFU, DEPTOR / Fold change vs veh, DEPTOR / RFU, CPM / Fold change vs veh, CPM / RFU, DNAJB6 / Fold change vs veh, DNAJB6 / RFU, CACNA2D3 / Fold change vs veh, CACNA2D3 / RFU, DTX4 / Fold change vs veh, DTX4 / RFU, TFCP2 / Fold change vs veh, TFCP2 / RFU, GMCL1 /// GMCL1P1 / Fold change vs veh, GMCL1 /// GMCL1P1 / RFU, AEBP2 / Fold change vs veh, AEBP2 / RFU, SNHG1 /// SNORD22 /// SNORD25 /// SNORD26 /// SNORD27 /// SNORD28 /// SNORD29 /// SNORD31 / Fold change vs veh, SNHG1 /// SNORD22 /// SNORD25 /// SNORD26 /// SNORD27 /// SNORD28 /// SNORD29 /// SNORD31 / Fold change (Aza/veh), C12orf56 (ProbeSet 11735607_a_at) / Fold change (ACY-1035/veh), C12orf56 (ProbeSet 11735607_a_at) / Fold change (Aza/veh), FGFR1OP (ProbeSet 11751329_s_at) / Fold change (ACY-1035/veh), FGFR1OP (ProbeSet 11751329_s_at) / Fold change (Aza/veh), VPS36 (ProbeSet 11739960_a_at) / Fold change (ACY-1035/veh), VPS36 (ProbeSet 11739960_a_at) / RFU SYPL1 (11715823_x_at) / Fold change /veh SYPL1 (11715823_x_at) / RFU IGFBP7 (11715501_s_at) / Fold change /veh IGFBP7 (11715501_s_at) / RFU REEP3 (11722064_at) / Fold change /veh REEP3 (11722064_at) / RFU IGLL1 (11728026_x_at) / Fold change /veh IGLL1 (11728026_x_at): dose or concentration left out as unconfirmed
Settings: MV-4-11 cells, 48 hours

For `Nc1ncn([C@@H]2O[C@H](CO)[C@@H](O)[C@H]2O)c(=O)n1` [azacitidine], the “Fold change /veh GAP43 (11754022_s_at)” value was 0.84.
